# Test system: p-tau
# Assay: tau phosphorylation (p-tau) in cells transfected with ApoE4
# Format: cell-based
# Conditions: not given
# Protocol: sAPPα or sAPPβ secreted into the cellular media are determined with sAPPα or sAPPβ AlphaLISA immunoassay kits (PerkinElmer) according to the manufacturer's protocol with some modifications. The standards, blanks, and media are diluted with the buffer provided in the kit and added to the plate. During the first incubation step, the analyte is captured either by an antibody recognizing the α-secretase cleavage site at sAPPα C-terminus (clone 2B3) or the sAPPβ C-terminus, and then by a second biotin-labeled antibody specific to the N-terminal common domain of sAPP. In the second incubation step, the biotinylated anti-analyte antibody is bound to the streptavidin-coated donor beads. At the end of this reaction, the plates are read on an EnSpire Alpha 2390 multilabel plate reader equipped with the AlphaScreen module. The Aβ1-42 or 1-40 are determined from media and/or cells using Life Science's sandwich ELISA kit. The levels of Aβ are quantified from a standard curve and normalized to total cellular protein (Spilman et al. (2014) Brain Res. 1551: 25-44; Theendakara et al. (2013) Proc. Natl. Acad. Sci. USA, 10(45): 18303-18308), Tau and p-tau are determined from cell extracts by a solid phase double antibody sandwich ELISA technology designed for quantitative determination of phospho-tau (Antibodies-Online). […]
row,Molecule,p-tau
1,CC(C)CC(=O)Nc1[nH]nc2c1CN(C(=O)C1CCN(C)CC1)C2(C)C [PHA793887],attenuated

# Test system: sAPPα
# Assay: sAPPα levels in the presence of ApoE4 (AlphaLISA)
# Format: cell-based
# Conditions: in the presence of ApoE4 (ApoE4-transfected cells)
# Protocol: (§1) sAPPα or sAPPβ secreted into the cellular media are determined with sAPPα or sAPPβ AlphaLISA immunoassay kits (PerkinElmer) according to the manufacturer's protocol with some modifications. The standards, blanks, and media are diluted with the buffer provided in the kit and added to the plate. During the first incubation step, the analyte is captured either by an antibody recognizing the α-secretase cleavage site at sAPPα C-terminus (clone 2B3) or the sAPPβ C-terminus, and then by a second biotin-labeled antibody specific to the N-terminal common domain of sAPP. In the second incubation step, the biotinylated anti-analyte antibody is bound to the streptavidin-coated donor beads. At the end of this reaction, the plates are read on an EnSpire Alpha 2390 multilabel plate reader equipped with the AlphaScreen module. The Aβ1-42 or 1-40 are determined from media and/or cells using Life Science's sandwich ELISA kit. The levels of Aβ are quantified from a standard curve and normalized to total cellular protein (Spilman et al. (2014) Brain Res. 1551: 25-44; Theendakara et al. (2013) Proc. Natl. Acad. Sci. USA, 10(45): 18303-18308), Tau and p-tau are determined from cell extracts by a solid phase double antibody sandwich ELISA technology designed for quantitative determination of phospho-tau (Antibodies-Online). APP and p-APP are determined by the DuoSet IC ELISA (R&D Systems) to measure phosphorylated APP in cell lysates. An immobilized capture antibody specific for APP binds both phosphorylated and unphosphorylated APP. After unbound material is washed away, a biotinylated detection antibody is used to detect either APP or phosphor-APP utilizing a standard HRP format. Using these assay procedures we notice a significant increase in p-tau and p-APP levels in ApoE4-transfected cells. It can be determined whether the primary “hits” reverse the ApoE4-mediated APP-Thr phosphorylation and tau-phosphorylation.
row,Molecule,sAPPα levels
1,Cc1c[nH]c(-c2cnc(NCCNc3ccc(C#N)cn3)nc2-c2ccc(Cl)cc2Cl)n1 [CHIR99021],reversed the reduction in sAPPα

# Same assay, conditions: in the presence of ApoE4 (ApoE4-transfected cells); listed as CHIR
row,Molecule,sAPPα levels
1,Cc1c[nH]c(-c2cnc(NCCNc3ccc(C#N)cn3)nc2-c2ccc(Cl)cc2Cl)n1 [CHIR99021],restores sAPPα levels

# Test system: p-APP
# Assay: APP phosphorylation (p-APP) in cells transfected with ApoE4
# Format: cell-based
# Conditions: not given
# Protocol: as §1
row,Molecule,APP phosphorylation (p-APP)
1,Cc1c[nH]c(-c2cnc(NCCNc3ccc(C#N)cn3)nc2-c2ccc(Cl)cc2Cl)n1 [CHIR99021],reversed
2,CC(C)CC(=O)Nc1[nH]nc2c1CN(C(=O)C1CCN(C)CC1)C2(C)C [PHA793887],attenuated

# Same assay, conditions: listed as CHIR
row,Molecule,APP phosphorylation (p-APP)
1,Cc1c[nH]c(-c2cnc(NCCNc3ccc(C#N)cn3)nc2-c2ccc(Cl)cc2Cl)n1 [CHIR99021],reduces APP phosphorylation

# Test system: SirT1
# Assay: Primary AlphaLISA screening assay: SirT1 levels in N2a cells stably transfected with ApoE4
# Format: cell-based, mouse
# Conditions: N2A neuroblastoma cells stably transfected with ApoE4
# Protocol: We have developed a primary screening assay that is HTS formatable; the assay would be done on N2a cells (mouse neuroblastoma cells) that have been stably transfected with ApoE3 and ApoE4. The cells are treated with drugs and the SirT1 levels are measured using the AlphaLISA assay that we have developed, e.g., as shown in FIG. 11. The illustrated AlphaLISA uses an antibody (Ab, E104, Abcam) that binds the C-terminus of SirT1 and is on the acceptor bead. The N-terminal Ab (D1D7, Abcam) is biotinylated and binds to the donor bead. For the primary assay the Neuro-2a (N2a) cells stably expressing similar levels of hApoE3 or hApoE4 are used. The primary assay can be done in triplicate. The N2a cells have reasonably good endogenous levels of APP thus avoiding the necessity of APP transfection. In general, for the assays N2a cells stably transfected with hApoE3 (E3) or hApoE4 (E4) are plated, e.g., at […] in 384-well plates in […] of growth medium and allowed to attached for 3 h. The E4 cells are treated with compounds overnight, E3 cells are controls. The following day, growth medium is removed and cells are lysed with AlphaLysis buffer complemented with protease and phosphatase inhibitors.
# Then, the AlphaLISA assay is run and molecules that can increase or reverse the SirT1 levels in ApoE4 cells are identified. A preliminary estimate, based on the initial screening which yielded two reproducible “hits” from a set of 1000 compounds, which is a 0.2% hit-rate. […] Our initial screening was done on a small library of about 1000 compounds. The assay is translatable to a HTS format.
row,Molecule,SirT1 levels (dose-response)
1,"Clc1cccc(Cl)c1N=C1NCCN1 [Compound A02, clonidine]",flat

# Same assay, conditions: initial screen of about 1000 compounds
row,Molecule,effect on SirT1 levels in initial screen
1,CNCCC(Oc1ccc(C(F)(F)F)cc1)c1ccccc1 (stereo not drawn) [Prozac],no affect on SirT1 levels

# Same assay, conditions: primary screening assay, ApoE4 cells
row,Molecule,Primary Assay (SrT1 increase)
1,"CC(C)(Cc1ccc(Cl)cc1)OC(=O)C(N)Cc1ccccc1 (stereo not drawn) [Compound 2, 1-(4-chlorophenyl)-2-methylpropan-2-yl 2-amino-3-phenylpropanoate]",I (activity I < 10%)
2,"CC(C)(Cc1ccc(Cl)cc1)OC(=O)C(N)CO (stereo not drawn) [Compound 16, 1-(4-chlorophenyl)-2-methylpropan-2-yl 2-amino-3-hydroxypropanoate]",II (activity II 10-30%)
3,"CC(C)(Cc1ccc(F)c(F)c1)NC(=O)C1CCCN1 (stereo not drawn) [Compound 24, N-(1-(3,4-difluorophenyl)-2-methylpropan-2-yl)pyrrolidine-2-carboxamide]",II (activity II 10-30%)
4,"CC(C)(Cc1ccc(Cl)cc1)OC(=O)C1CCCCN1 (stereo not drawn) [Compound 19, 1-(4-chlorophenyl)-2-methylpropan-2-yl piperidine-2-carboxylate]",II (activity II 10-30%)
5,"CC(C)(Cc1ccc(Cl)cc1)OC(=O)C(N)CCCCN (stereo not drawn) [Compound 13, 1-(4-chlorophenyl)-2-methylpropan-2-yl 2,6-diaminohexanoate]",II (activity II 10-30%)
6,"Cc1ccc(CC(C)(C)OC(=O)C(C)N)cc1 (stereo not drawn) [Compound 6, 2-methyl-1-p-tolylpropan-2-yl 2-aminopropanoate]",II (activity II 10-30%)
7,"CC(N)C(=O)OC(C)(C)CCc1ccc(Cl)cc1 (stereo not drawn) [Compound 12, 4-(4-chlorophenyl)-2-methylbutan-2-yl 2-aminopropanoate]",II (activity II 10-30%)
8,"CC(C)C(N)C(=O)OC(C)(C)Cc1ccc(Cl)cc1 (stereo not drawn) [Compound 8, 1-(4-chlorophenyl)-2-methylpropan-2-yl 2-amino-3-methylbutanoate]",II (activity II 10-30%)
9,"CC(N)C(=O)NC(C)(C)Cc1ccc(F)c(F)c1 (stereo not drawn) [Compound 22, 2-amino-N-(1-(3,4-difluorophenyl)-2-methylpropan-2-yl)propanamide]",III (activity III > 30 SrT1 increase)
10,"CC(N)C(=O)OC1(Cc2ccc(Cl)cc2)CCCCC1 (stereo not drawn) [Compound 10, 1-(4-chlorobenzyl)cyclohexyl 2-aminopropanoate]",I (activity I < 10%)
11,"CC(N)C(=O)OC(C)(C)Cc1ccc(F)cc1 (stereo not drawn) [Compound 4, 1-(4-fluorophenyl)-2-methylpropan-2-yl 2-aminopropanoate]",II (activity II 10-30%)
12,"CC(N)C(=O)OC1(Cc2ccc(Cl)cc2)CCC1 (stereo not drawn) [Compound 9, 1-(4-chlorobenzyl)cyclobutyl 2-aminopropanoate]",I (activity I < 10%)
13,"CCC(C)C(N)C(=O)OC(C)(C)Cc1ccc(Cl)cc1 (stereo not drawn) [Compound 11, 1-(4-chlorophenyl)-2-methylpropan-2-yl 2-amino-3-methylpentanoate]",II (activity II 10-30%)
14,"CC(N)C(=O)OC(C)(C)Cc1ccccc1 (stereo not drawn) [Compound 1, 2-methyl-1-phenylpropan-2-yl 2-aminopropanoate]",II (activity II 10-30%)
15,"CNC(C)C(=O)OC(C)(C)Cc1ccc(Cl)cc1 (stereo not drawn) [Compound 23, 1-(4-chlorophenyl)-2-methylpropan-2-yl 2-(methylamino)propanoate]",I (activity I < 10%)
16,2-amino-N-(1-(4-chlorophenyl)-2-methylpropan-2-yl)propanamide [Compound 15],III (activity III > 30 SrT1 increase)
17,"CC(N)C(=O)OC(C)(C)Cc1ccc(F)c(F)c1 (stereo not drawn) [Compound 3, 1-(3,4-difluorophenyl)-2-methylpropan-2-yl 2-aminopropanoate]",III (activity III > 30 SrT1 increase)
18,1-(4-chlorophenyl)-2-methylpropan-2-yl pyrrolidine-2-carboxylate [Compound 20],I (activity I < 10%)
19,"C[C@H](N)CC(=O)OC(C)(C)Cc1ccc(Cl)cc1 [Compound 18, (S)-1-(4-chlorophenyl)-2-methylpropan-2-yl 3-aminobutanoate]",I (activity I < 10%)
20,"CC(C)CC(N)C(=O)OC(C)(C)Cc1ccc(Cl)cc1 (stereo not drawn) [Compound 5, 1-(4-chlorophenyl)-2-methylpropan-2-yl 2-amino-4-methylpentanoate]",I (activity I < 10%)
21,"CC(C)(Cc1ccc(Cl)cc1)OC(=O)CN [Compound 7, 1-(4-chlorophenyl)-2-methylpropan-2-yl 2-aminoethanoate]",II (activity II 10-30%)
22,"1-(3,4-difluorophenyl)-2-methylpropan-2-yl 2-aminoethanoate [Compound 21]",II (activity II 10-30%)
23,"CC(C)(Cc1ccc(Cl)cc1)OC(=O)CCN [Compound 17, 1-(4-chlorophenyl)-2-methylpropan-2-yl 3-aminopropanoate]",I (activity I < 10%)
24,"CC(N)C(=O)OC(C)(C)Cc1cc(F)cc(F)c1 (stereo not drawn) [Compound 14, 1-(3,5-difluorophenyl)-2-methylpropan-2-yl 2-aminopropanoate]",III (activity III > 30 SrT1 increase)

# Test system: obese mice
# Assay: not given
# Conditions: cited from earlier work
row,Molecule,extension of lifespan [%]
1,O=C(Nc1ccccc1-c1cn2c(CN3CCNCC3)csc2n1)c1cnc2ccccc2n1 [SRT1720],44
